Here are results for 17 compounds from BindingDB's records for doi:10.1021/acs.jmedchem.8b00082 (Abbvie, 2018).

Experiment [1] is described as follows: Inhibition of NS5A in HuH7 cell infected HCV genotype 1a H77 assessed as decrease in viral replication after 3 days by luciferase reporter gene assay. Background: A reporter such as luciferase makes a cellular process visible.
The nature of experiment [2]: Inhibition of NS5A in HuH7 cell infected HCV genotype 1b Con1 assessed as decrease in viral replication after 3 days by luciferase reporter gene assay.
Experiment [3] is described as follows: Inhibition of HCV genotype 1b Con1 NS5A expressed in HuH7 cell infected HCV genotype 2b assessed as decrease in viral replication after 3 days by luciferase reporter gene assay.
Experiment [4] is described as follows: Inhibition of HCV genotype 1b Con1 NS5A expressed in HuH7 cell infected HCV genotype 3a assessed as decrease in viral replication after 3 days by luciferase reporter gene assay.
The nature of experiment [5]: Inhibition of HCV genotype 1b Con1 NS5A expressed in HuH7 cell infected HCV genotype 4a assessed as decrease in viral replication after 3 days by luciferase reporter gene assay.
The nature of experiment [6]: Inhibition of HCV genotype 1b Con1 NS5A expressed in HuH7 cell infected HCV genotype 2a assessed as decrease in viral replication after 3 days by luciferase reporter gene assay.
Experiment [7] in a line: Inhibition of NS5A in HuH7 cell infected HCV genotype 1a H77 assessed as decrease in viral replication after 3 days in presence of 40% human plasma by luciferase reporter gene assay.
Experiment [8] is described as follows: Inhibition of NS5A in HuH7 cell infected HCV genotype 1b Con1 assessed as decrease in viral replication after 3 days in presence of 40% human plasma by luciferase reporter gene assay.
A short description of experiment [9]: Inhibition of HCV genotype 1b Con1 NS5A expressed in HuH7 cell infected HCV genotype 6a assessed as decrease in viral replication after 3 days by luciferase reporter gene assay.

The structures appear in SMILES notation.

For the compound `COC(=O)N[C@H](C(=O)N1CCC[C@H]1c1nc2ccc([C@H]3CC[C@H](c4ccc5nc([C@@H]6CCCN6C(=O)[C@@H](NC(=O)OC)C(C)C)[nH]c5c4)N3c3ccc(C4CCCCC4)cc3)cc2[nH]1)C(C)C`, the concentration for a half-maximal effect (EC50) (commonly the concentration at which the effect is half-maximal) in [1] turned out to be 0.004 nM; in experiment [2] it was 0.009 nM; in experiment [3], 0.007 nM; in experiment [4] it was 0.008 nM; in [5] it was 0.009 nM; in experiment [6], 0.01 nM. Moreover, the EC50 in experiment [7] turned out to be 0.107 nM; in [8] it was 0.178 nM.

Regarding `COC(=O)N[C@H](C(=O)N1CCC[C@H]1c1nc2ccc([C@H]3CC[C@H](c4ccc5nc([C@@H]6CCCN6C(=O)[C@@H](NC(=O)OC)C(C)C)[nH]c5c4)N3c3ccc(N4CCC(c5ccccc5)CC4)cc3)cc2[nH]1)C(C)C`, the EC50 in [1] is 0.324 nM; in experiment [2], 0.325 nM; in experiment [3] it was 0.452 nM; in experiment [4], 0.481 nM; in experiment [5], 0.243 nM; in experiment [6] it was 0.468 nM. The EC50 was determined as 0.402 nM in [9], 1.51 nM in experiment [7] and 1.51 nM in experiment [8].

`COC(=O)N[C@H](C(=O)N1CCC[C@H]1c1nc2ccc([C@H]3CC[C@H](c4ccc5nc([C@@H]6CCCN6C(=O)[C@@H](NC(=O)OC)C(C)C)[nH]c5c4)N3c3ccc(N4CCOCC4)cc3)cc2[nH]1)C(C)C`: the concentration for a half-maximal effect (EC50) in [1] came out at 0.379 nM; in experiment [2], 0.382 nM; in experiment [3], 0.96 nM; in experiment [4], 1.2 nM; in experiment [5], 0.316 nM; in experiment [6], 0.598 nM. Further, the EC50 in experiment [7] was found to be 0.902 nM; in [8], 2.07 nM.

With `COC(=O)N[C@H](C(=O)N1CCC[C@H]1c1nc2cc([C@H]3CC[C@H](c4ccc5[nH]c([C@@H]6CCCN6C(=O)[C@@H](NC(=O)OC)C(C)C)nc5c4)N3c3cc(F)c(N4CCCCC4)c(F)c3)ccc2[nH]1)C(C)C`, the EC50 in experiment [1] was found to be 0.005 nM; in experiment [2] it was 0.006 nM; in experiment [3], 0.007 nM; in experiment [4], 0.008 nM; in experiment [5], 0.005 nM; in experiment [6], 0.013 nM. The EC50 in experiment [9] amounted to 0.007 nM; in experiment [7], 0.151 nM; in experiment [8], 0.241 nM.

Take `COC(=O)N[C@H](C(=O)N1CCC[C@H]1c1nc2ccc([C@H]3CC[C@H](c4ccc5nc([C@@H]6CCCN6C(=O)[C@@H](NC(=O)OC)C(C)C)[nH]c5c4)N3c3ccc(C(C)(C)C)cc3)cc2[nH]1)C(C)C`: the EC50 in experiment [1] was found to be 0.009 nM; in experiment [2], 0.013 nM; in experiment [3], 0.01 nM; in experiment [4], 0.006 nM; in experiment [5] it was 0.006 nM; in [6], 0.152 nM. Also, the EC50 came out at 0.148 nM in experiment [7] and 0.268 nM in experiment [8].

On to `COC(=O)N[C@H](C(=O)N1CCC[C@H]1c1nc2ccc([C@H]3CC[C@H](c4ccc5nc([C@@H]6CCCN6C(=O)[C@@H](NC(=O)OC)C(C)C)[nH]c5c4)N3c3ccc(Cl)cc3)cc2[nH]1)C(C)C`, for which the concentration for a half-maximal effect (EC50) in [1] turned out to be 0.006 nM; in experiment [2], 0.007 nM; in experiment [3], 0.007 nM; in experiment [4] it was 0.012 nM; in [5] it was 0.005 nM; in experiment [6] it was 0.012 nM. Further, the values for the EC50 in [9], in experiment [7] and in [8] were 0.008 nM, 0.24 nM and 0.33 nM, respectively.

Take `COC(=O)N[C@H](C(=O)N1CCC[C@H]1c1nc2ccc([C@H]3CC[C@H](c4ccc5nc([C@@H]6CCCN6C(=O)[C@@H](NC(=O)OC)C(C)C)[nH]c5c4)N3c3ccc(-c4ccccc4)cc3)cc2[nH]1)C(C)C`: the EC50 is 0.004 nM in experiment [1]; 0.003 nM in experiment [2]; 0.009 nM in [3]; 0.016 nM in [4]; 0.006 nM in [5]; 0.011 nM in experiment [6]. In addition, the EC50 in experiment [9] is 0.011 nM; in experiment [7], 0.075 nM; in [8] it was 0.108 nM.

Turning to `COC(=O)N[C@H](C(=O)N1CCC[C@H]1C(=O)Nc1ccc([C@H]2CC[C@H](c3ccc(NC(=O)[C@@H]4CCCN4C(=O)[C@@H](NC(=O)OC)C(C)C)cc3)N2c2ccc(C(C)(C)C)cc2)cc1)C(C)C`, the EC50 came out at 0.136 nM in experiment [1], 0.009 nM in [2], 0.986 nM in experiment [7] and 0.09 nM in [8].

For the compound `COC(=O)N[C@H](C(=O)N1CCC[C@H]1c1nc2ccc([C@H]3CC[C@H](c4ccc5nc([C@@H]6CCCN6C(=O)[C@@H](NC(=O)OC)C(C)C)[nH]c5c4)N3c3ccc(N4CCCCC4)c(F)c3)cc2[nH]1)C(C)C`, the EC50 in [1] was 0.018 nM; in experiment [2] it was 0.029 nM; in experiment [3], 0.03 nM; in experiment [4] it was 0.044 nM; in experiment [5], 0.017 nM; in [6] it was 0.048 nM. Moreover, the results for the EC50 in experiment [7] and in experiment [8] were 0.199 nM and 0.383 nM, respectively.

Take `COC(=O)N[C@H](C(=O)N1CCC[C@H]1c1nc2ccc([C@H]3CC[C@H](c4ccc5nc([C@@H]6CCCN6C(=O)[C@@H](NC(=O)OC)C(C)C)[nH]c5c4)N3c3ccc(OC(F)(F)F)cc3)cc2[nH]1)C(C)C`: the EC50 in [1] was determined as 0.019 nM; in [2], 0.012 nM; in experiment [3], 0.012 nM; in [4], 0.018 nM; in [5], 0.013 nM; in experiment [6] it was 0.043 nM. Moreover, the EC50 in experiment [7] was 0.276 nM; in [8] it was 0.23 nM.

Regarding `COC(=O)N[C@H](C(=O)N1CCC[C@H]1c1nc2ccc([C@H]3CC[C@H](c4ccc5nc([C@@H]6CCCN6C(=O)[C@@H](NC(=O)OC)C(C)C)[nH]c5c4)N3c3cc(Cl)c(N4CCCCC4)c(Cl)c3)cc2[nH]1)C(C)C`, the EC50 in experiment [1] stood at 0.005 nM; in [2] it was 0.003 nM; in experiment [3], 0.005 nM; in experiment [4], 0.011 nM; in experiment [5], 0.006 nM; in experiment [6] it was 0.044 nM. For the same compound, the EC50 in experiment [9] was found to be 0.01 nM; in experiment [7] it was 0.213 nM; in experiment [8], 0.132 nM.

Turning to `COC(=O)N[C@H](C(=O)N1CCC[C@H]1c1nc2ccc([C@H]3CC[C@H](c4ccc5nc([C@@H]6CCCN6C(=O)[C@@H](NC(=O)OC)C(C)C)[nH]c5c4)N3c3cc(F)c(N4CCC(c5ccc(F)cc5)CC4)c(F)c3)cc2[nH]1)C(C)C`, the EC50 in experiment [1] was found to be 0.003 nM; in experiment [2], 0.008 nM; in [3], 0.013 nM; in experiment [4], 0.013 nM; in experiment [5] it was 0.009 nM; in experiment [6], 0.02 nM. Further, the EC50 in experiment [9] stood at 0.021 nM; in experiment [7], 0.078 nM; in experiment [8], 0.126 nM.

With `COC(=O)N[C@H](C(=O)N1CCC[C@H]1c1nc2ccc([C@H]3CC[C@H](c4ccc5nc([C@@H]6CCCN6C(=O)[C@@H](NC(=O)OC)C(C)C)[nH]c5c4)N3c3ccc(Oc4ccccc4)cc3)cc2[nH]1)C(C)C`, the EC50 in experiment [1] came out at 0.012 nM; in [2] it was 0.02 nM; in experiment [3], 0.008 nM; in experiment [4], 0.011 nM; in [5], 0.005 nM; in experiment [6] it was 0.012 nM. Moreover, the results for the EC50 in experiment [7] and in experiment [8] were 0.155 nM and 0.279 nM, respectively.

For `COC(=O)N[C@H](C(=O)N1CCC[C@H]1c1nc2ccc([C@H]3CC[C@H](c4ccc5nc([C@@H]6CCCN6C(=O)[C@@H](NC(=O)OC)C(C)C)[nH]c5c4)N3c3ccc(C4CC4)cc3)cc2[nH]1)C(C)C`, the EC50 in experiment [1] stood at 0.012 nM; in experiment [2] it was 0.023 nM; in experiment [3] it was 0.02 nM; in [4], 0.026 nM; in experiment [5] it was 0.02 nM; in experiment [6], 0.041 nM. The values for the half-maximal effective concentration (EC50) in experiment [7] and in experiment [8] were 0.161 nM and 0.354 nM, respectively.

Regarding `COC(=O)N[C@H](C(=O)N1CCC[C@H]1c1nc2ccc([C@@H]3CC[C@@H](c4ccc5nc([C@@H]6CCCN6C(=O)[C@@H](NC(=O)OC)C(C)C)[nH]c5c4)N3c3ccc(C(C)(C)C)cc3)cc2[nH]1)C(C)C`, the EC50 in experiment [1] was found to be 0.071 nM; in experiment [2], 0.013 nM; in [7] it was 1.98 nM; in experiment [8] it was 0.354 nM.

For `COC(=O)N[C@H](C(=O)N1CCC[C@H]1c1nc2ccc([C@H]3CC[C@H](c4ccc5nc([C@@H]6CCCN6C(=O)[C@@H](NC(=O)OC)C(C)C)[nH]c5c4)N3c3ccc(F)cc3)cc2[nH]1)C(C)C`, the 50% effective concentration (EC50) in experiment [1] worked out at 0.038 nM; in [2], 0.025 nM; in [3] it was 0.021 nM; in experiment [4], 0.031 nM; in experiment [5], 0.014 nM; in experiment [6] it was 0.028 nM. The EC50 turned out to be 0.014 nM in [9], 0.49 nM in experiment [7] and 0.427 nM in [8].

Turning to `COC(=O)N[C@H](C(=O)N1CCC[C@H]1c1nc2ccc([C@H]3CC[C@H](c4ccc5nc([C@@H]6CCCN6C(=O)[C@@H](NC(=O)OC)C(C)C)[nH]c5c4)N3c3ccc(N4CCOCC4)c(F)c3)cc2[nH]1)C(C)C`, the EC50 came to 0.189 nM in [1]; 0.196 nM in [2]; 0.229 nM in experiment [3]; 0.355 nM in experiment [4]; 0.17 nM in experiment [5]; 0.307 nM in experiment [6]. Further, the half-maximal effective concentration (EC50) in [7] is 0.474 nM; in experiment [8] it was 0.915 nM.
